Results as given in US20190142775A1, “TREATING ACTIVATED DERMAL CONDITIONS WITH AGENTS THAT TARGET ENERGY METABOLISM” (Sciaderm, Inc., priority 2016, published 2019).

Key:
[1] = tested on: psoriatic plaques; assay: Open label case report: topical 3-BP formulation applied to psoriatic plaques of one subject; type: in vivo, human
Experimental: The present Example describes use of an exemplary topical formulation of 3-BP in the treatment of psoriasis. The goal of this study is to reduce the hyper-proliferation of skin cells and deactivate the inflammatory response associated with the condition. Therefore, treatment was planned in a sequential dose escalating fashion. Dose escalation is accomplished by a step wise increase in formulation strength and/or application volume and frequency. Daily or twice daily doses were administered, with an initial strength ranging from about 0.001% to about 0.05% and administered doses were increased incrementally to a final strength ranging from about 5% to about 25% of the total weight of the formulation. As a first objective, the maximum tolerated dose was established, which was indicated by the observation of local irritation in the area of application. In some cases, once local irritation was observed, dosing was then reduced by approximately factor of four and continued or readjusted as appropriate to assess efficacy.
An exemplary topical formulation of 3-BP was prepared as described below: […]
An exemplary 3-Bromo-Pyruvic Acid (“BPA”) formulation was compounded as a lotion of low viscosity, filled dropper bottles (e.g., a 3 mL dropper bottle).
Compounding: 3-Bromo-Pyruvic Acid, BPA, CAS#1113-59-3, was obtained from AK Scientific, Inc., Union City, Calif. and stored at frozen conditions. Given the known instability of BPA at higher pH (e.g., physiologic pH) the final formulation consisted of 75% acetic acid (5% w/w) and 25% compounding base with a pH of approximately 3.0. During formulation, all ingredients were chilled to +5° C., and kept on ice for the entire procedure.
Stock solution A was prepared by dissolving the appropriate amount of solid bromopyruvic acid, BPA, in 5% acetic acid at a concentration of 2% to 10% (w/w); depending on the desired final concentration, intermediate dilutions of for example 1:5, using 5% acetic acid, may have been prepared as well.
Stock solution B consisted of a commercially available compounding base, Vanicream™, NDC 45334-300-16, that was diluted 1:1 in 5% acetic acid. The final formulation was comprised of blending BPA solution (Stock A) with compounding base (Stock B) at a ratio of 1:1. The resulting formulation is of low viscosity and filled in 3 ml ophthalmic dropper bottles.
Final concentration of BPA was between 0.15 mM (0.0025% w/w) and 300 mM (5.0% w/w). To preserve stability of the active ingredient, the formulation was stored frozen at −18° C. until use. Once treatment application commenced, bottles were kept at refrigerated conditions (+5° C.) for up to 1 week and then replaced with freshly made product.
This research was conducted as an out-patient, open label, intra-individually controlled repeated measurement experiment involving up to 10 subjects. To minimize bias, subjects were treated at selected target plaques. Neighboring plaques serve as an intra-individual control.
An exemplary 3-BP formulation was self-administered as one or two drops per application, depending on size of the treatment area. Care was taken for drops to fall freely from the dropper tip to ensure a consistent dose volume of ≈25-50 μl/drop. Most treatment applications were done in the morning and photographs were taken mostly in the evening to allow possible moisturizing effects of the compounding base to wear off.
Within each treatment area, the severity is estimated by three clinical signs: erythema (redness), induration (thickness) and desquamation (scaling). Efficacy is assessed using the Investigators Global Assessment scale and the Psoriasis Area Severity Index (PASI), which are summarized in Tables 1 and 2 below. In addition, target lesions are photographed and adjudicated by a blinded independent investigator. These efficacy variables were assessed at every visit.
Safety is assessed by collection of research events and review of concomitant treatments. Clinical adverse event reporting is conducted at each visit. […]

[2] = at higher pH (e.g., physiologic pH); cited from earlier work
[3] = Plaque #3, right forearm, one drop per day, 1.75 mM, one week
[4] = Plaque #4, left forearm, 0.15 mM, QD, 2.5 weeks
[5] = Plaque #5, left elbow, 1 drop per day, 0.15 mM, 10 days

SMILES: O=C(O)C(=O)CBr [3-BP, 3-bromopyruvate]
- Adverse effects at a strength of 0.5 mM ([1]; 0.5 mM, summary of case report): without any observable adverse effects
- Efficacy at a strength of 0.5 mM ([1]; 0.5 mM, summary of case report): highly effective
- Plaque status 20 weeks after last treatment application ([1]; Plaque 1, left forearm, 26 weeks after baseline (FIG. 1)): complete remission
- Local adverse effects ([1]; Plaque 1, left forearm, BID, 0.1% to 5.0% (6-300 mM), after approximately one week of treatment): local irritation, oozing, and crusting
- Treatment effect on psoriatic plaque ([1]; Plaque 1, left forearm, one drop twice per day, strength escalated 0.1% to 5.0% (6-300 mM) in first week, later reduced to QD and 0.1%, stopped after 6 weeks): completely resolved
- Plaque status 20 weeks after last treatment application ([1]; Plaque #2, right forearm): complete remission
- Duration of complete remission after last treatment application ([1]; Plaque #2, right forearm, as of the date of the last visit): approximately 8 months
- Tolerability / local adverse effects ([1]; Plaque #2, right forearm, once daily 0.1% (6 mM) one week, then 0.03% (1.75 mM) two weeks): well tolerated and only some mild local irritation
- Treatment effect on psoriatic plaque ([1]; Plaque #2, right forearm, once daily 0.1% (6 mM) one week, then 0.03% (1.75 mM) two weeks, Day 21): mostly resolved
- Tolerability ([1]; Plaque #3, right forearm, 0.5 mM, once per day): well tolerated
- Treatment effect on severity of psoriasis plaques ([1]; Plaque #3, right forearm, 1 mM QD 10 days, then 0.5 mM once per day): Significant improvement
- Local adverse effects ([1]; Plaque #3, right forearm, 1 mM, QD, 10 days): minor local irritation
- Plaque status after treatment was stopped ([1]; Plaque #3, right forearm, after 1.75 mM QD and 6 mM every other day): psoriatic skin afflictions remained
- Local adverse effects [1, 3]: itching and pin-head sized crusting
- Treatment effect on psoriatic plaque [1, 3]: improved
- Local adverse effects ([1]; Plaque #3, right forearm, resumed at 6 mM every other day after one week pause): local irritation became more pronounced
- Tolerability [1, 4]: well tolerated
- Treatment effect on psoriatic plaque [1, 4]: only marginal efficacy
- Time plaque remained resolved after the last application ([1]; Plaque #4, left forearm, 0.5 mM): more than 6 weeks
- Local adverse effects ([1]; Plaque #4, left forearm, 0.5 mM, Day 18 to 43): did not induce any local irritancy or other unwanted effects
- Treatment effect on psoriatic plaque ([1]; Plaque #4, left forearm, 0.5 mM, Day 18 to 43, continued treatment): completely resolved
- Treatment effect on psoriatic plaque ([1]; Plaque #5, left elbow, 0.5 mM, 1 drop QD Days 10-19, 2 drops QD from Day 20, Day 47 (FIG. 4), versus untreated right elbow): completely clear of psoriasis
- Tolerability [1, 5]: well tolerated
- Treatment effect on psoriatic plaque [1, 5]: only marginal improvement
- Response of all treated plaques ([1]; five different or recurring psoriasis plaques, over a period of three to six weeks): responded favorably or completely resolved
- Concentration inducing local irritation / at which adverse events started to emerge ([1]; local irritation, including oozing and crusting, summary of case report): ≥ 1000 µM
- Outcome of local adverse effects after cessation of treatment ([1]; within a few weeks after treatment was stopped): resolved without sequelae
- Stability of BPA [2]: instability
